{"source": "patent US9260504B2", "about": "“N- and C-terminal substituted antagonistic analogs of GH-RH” (University of Miami, priority 2008, dated 2016)", "format_in_all_cases": "in vivo", "key": {"[1]": {"test_system": "PC-3 human hormone-independent prostate cancer", "assay": "PC-3 human prostate cancer xenografts in nude mice, Experiment 2", "conditions": "10 μg/day s.c.", "description": "Male nude mice were implanted s.c. with 3 mm^3 pieces of PC-3 human hormone-independent prostate cancer tissue on both flanks. When tumors reached a volume of approx. 50 mm^3, the mice were divided into 4 experimental groups with 8 to 10 animals in each group and received single daily injections for 35 days as follows: 1. Control (vehicle solution); 2. JMR-132 (10 μg/day s.c.); 3. Peptide 1109 (10 μg/day s.c.); 4. Peptide 11111 (10 μg/day s.c.); Tumor volumes were measured once a week. The experiment was ended on day 35 by sacrificing the mice under Isoflurane anesthesia. Resulting tumors were cleaned, weighed, and snap-frozen until further analyses. Statistical analyses of the measurement results were done by two-tailed t-test, p<0.05 being considered significant. Data are presented as the means±S.E.\nExperiment 2 was similar to Experiment 1. Experiment 2 was started when PC-3 tumors had grown to approximately 50 mm^3 in volume. At this time, the animals were divided into 5 experimental groups with 8 animals in each group, and received single daily injections for 14 days as follows: 1. Control (vehicle solution); 2. JMR-132 (10 μg/day s.c.); 3. Peptide 1109 (5 μg/day s.c.); 4. Peptide 11109 (5 μg/day s.c.); 5. Peptide 11109 (2 μg/day s.c.). Further details of Experiment 2 are the same as for Experiment 1"}, "[2]": {"test_system": "PC-3 human hormone-independent prostate cancer", "assay": "PC-3 human prostate cancer xenografts in nude mice, Experiment 3", "conditions": "10 μg/day s.c., 28 days", "description": "(§1) Male nude mice were implanted s.c. with 3 mm^3 pieces of PC-3 human hormone-independent prostate cancer tissue on both flanks. When tumors reached a volume of approximately 50 mm^3, the mice were divided into 12 experimental groups with 8 to 10 animals in each group and received single daily injections for 28 days as follows: 1. Control (vehicle solution); 2. JMR-132 (10 μg/day s.c.); 3. Peptide 11113 (2 μg/day s.c.); 4. Peptide 11119 (2 μg/day s.c.); 5. Peptide 11209 (2 μg/day s.c.); 6. Peptide 11313 (2 μg/day s.c.); 7. Peptide 11408 (2 μg/day s.c.); 8. Peptide 11435 (2 μg/day s.c.); 9. Peptide 11457 (2 μg/day s.c.); 10. Peptide 11459 (2 μg/day s.c.); 11. Peptide 11469 (2 μg/day s.c.); 12. Peptide 11491 (2 μg/day s.c.).\n(§2) Tumor volumes were measured once a week. The experiment was ended on day 28 by sacrificing the mice under Isoflurane anesthesia. Resulting tumors were cleaned, weighed, and snap-frozen until further analyses. Statistical analyses of the measurement results were done by two-tailed t-test, p<0.05 being considered significant."}, "[3]": {"test_system": "PC-3 human hormone-independent prostate cancer", "assay": "PC-3 human prostate cancer xenografts in nude mice, Experiment 4", "conditions": "10 μg/day s.c.", "description": "as §1, §2\nAll experimental details of Experiment 4 are the same as for Experiment 3, with the following difference. When tumors reached a volume of approximately 50 mm^3, the mice were divided into 11 experimental groups with 8 to 10 animals in each group and received single daily injections for 46 days as follows: 1. Control (vehicle solution); 2. JMR-132 (10 μg/day s.c.); 3. Peptide 11123 (2 μg/day s.c.); 4. Peptide 11125 (2 μg/day s.c.); 5. Peptide 11213 (2 μg/day s.c.); 6. Peptide 11433 (2 μg/day s.c.); 7. Peptide 11473 (2 μg/day s.c.); 8. Peptide 11485 (2 μg/day s.c.); 9. Peptide 11497 (2 μg/day s.c.); 10. Peptide 11499 (2 μg/day s.c.); 11. Peptide 11521 (2 μg/day s.c.). Tumor volumes were measured once a week. The experiment was ended on day 46 by sacrificing the mice under Isoflurane anesthesia. Resulting tumors were cleaned, weighed, and snap-frozen until further analyses. Statistical analyses of the measurement results were done by two-tailed t-test, p<0.05 being considered significant."}, "[4]": {"test_system": "H-460 human non-small cell lung cancer", "assay": "H-460 human non-SCLC xenografts in nude mice, Experiment 1", "conditions": "10 μg/day s.c., 28 days; means±S.E.", "description": "Male nude mice were implanted s.c. with 3 mm^3 pieces of H-460 human non-SCLC tumor tissue on both flanks. When tumors had grown to a mean volume of approximately 90 mm^3, the mice were randomly assigned into 4 experimental groups with 10 animals in each group and received single daily injections for 28 days as follows: 1. Control (vehicle solution); 2. JMR-132 (10 μg/day s.c.); 3. Peptide 1109 (10 μg/day s.c.); 4. Peptide 11111 (10 μg/day s.c.). Tumor volumes were measured once a week. The experiment was ended on day 28 by sacrificing the mice under Isoflurane anesthesia. Resulting tumors were cleaned, weighed, and snap-frozen until further analyses. Statistical analyses of the measurement results were done by two-tailed t-test, p<0.05 being considered significant. Data are presented as the means±S.E."}, "[5]": {"test_system": "Panc-1 human pancreatic cancer", "assay": "Panc-1 human pancreatic cancer xenografts in nude mice", "conditions": "10 μg/day s.c. for 36 days", "description": "Panc-1 cancers were transplanted s.c. into both flank areas of 60 female nude mice, and allowed to grow for 105 days before starting the treatment with GH-RH antagonists. The mice were randomly assigned into 3 experimental groups with 8 animals in each group and received single daily injections for 36 days as follows: 1. Control (vehicle solution); 2. JMR-132 (10 μg/day s.c.); 3. Peptide 11457 (10 μg/day s.c.). Tumor volumes were measured once a week. The experiment was ended on day 82 by sacrificing the mice under Isoflurane anesthesia. Resulting tumors were cleaned, weighed, and snap-frozen until further analyses. Statistical analyses of the measurement results were done by two-tailed t-test, p<0.05 being considered significant. Data are presented as the means±S.E."}, "[6]": {"test_system": "SK-Hep-1 human hepatocellular cancer", "assay": "SK-Hep-1 human hepatocellular cancer xenografts in nude mice", "conditions": "10 μg/day s.c.", "description": "SK-Hep-1 cancers were transplanted s.c. into both flank areas of 66 female nude mice, and allowed to grow for 47 days before starting the treatment with GH-RH antagonists. The mice were randomly assigned into 4 experimental groups with 8 animals in each group and received single daily injections for 135 days as follows: 1. Control (vehicle solution); 2. JMR-132 (10 μg/day s.c.); 3. Peptide 1109 (5 μg/day s.c.); 4. Peptide 1109 (10 μg/day s.c.). Tumor volumes were measured once a week. The experiment was ended on day 135 by sacrificing the mice under Isoflurane anesthesia. Resulting tumors were cleaned, weighed, and snap-frozen until further analyses. Statistical analyses of the measurement results were done by two-tailed t-test, p<0.05 being considered significant. Data are presented as the means±S.E."}}, "note": "Marks after values point to notes of the source that are not given here."}
{"substance": "[PhAc^0-Tyr^1, D-Arg^2, Cpa^6, Ala^8, Har^9, Tyr(Me)^10, His^11, Abu^15, His^20, Nle^27, D-Arg^28, Har^29]hGH-RH(1-29)NH2 [JMR-132, reference compound]", "values": [{"measurement": "Tumor growth after 2 weeks (%)", "setting": "[1]; 14 days", "result": 432, "unit": "%"}, {"measurement": "Inhibition (%)", "setting": "[1]; tumor growth after 2 weeks", "result": 39.61, "unit": "%"}, {"measurement": "Tumor growth inhibition after 4 weeks (%)", "setting": "[2]", "result": 28.11, "unit": "%"}, {"measurement": "Tumor growth after 28 days (%)", "setting": "[3]", "result": 1004, "unit": "%"}, {"measurement": "Tumor growth after 46 days (%)", "setting": "[3]", "result": 1848, "unit": "%"}, {"measurement": "Inhibition (%)", "setting": "[3]; after 28 days", "result": 26.62, "unit": "%"}, {"measurement": "Inhibition (%)", "setting": "[3]; after 46 days", "result": 44.52, "unit": "%"}, {"measurement": "Tumor growth after 4 weeks (%)", "setting": "[4]", "result": "2404 ± 604", "unit": "%"}, {"measurement": "Tumor weights", "setting": "[5]; end of experiment day 82", "result": "185 ± 105", "unit": "mg"}, {"measurement": "Tumor growth from day 1 to day 82 (%)", "setting": "[5]; means±S.E.", "result": "1730 ± 350", "unit": "%"}, {"measurement": "Tumor volume on day 82 (mm^3)", "setting": "[5]; means±S.E.", "result": "511 ± 221* mm^3"}, {"measurement": "Effect on the growth of Panc-1 human pancreatic cancers", "setting": "[5]; observed for at least 82 days", "result": "less effective"}, {"measurement": "Tumors with total regression", "setting": "[6]; 135 days", "result": 2}, {"measurement": "Tumor volume (mm^3) on day 135", "setting": "[6]; 135 days, means±S.E.", "result": "615 ± 372", "unit": "mm^3"}, {"measurement": "Tumor weights (mg)", "setting": "[6]; tumors removed at autopsy", "result": "1006 ± 569 (7) mg"}]}
